{
  "source": "patent US12565475B2",
  "about": "“Small molecule compound inhibiting signal transmission path of TLR7 and TLR9 and use thereof” (AJOU UNIVERSITY INDUSTRY-ACADEMIC COOPERATION FOUNDATION, priority 2019, dated 2026)",
  "type_in_all_cases": "cell-based, murine",
  "key": {"TLR9": {"biological_target": "T1, TLR9 (Mus musculus, UniProt Q9EQU3)", "T1 construct": "endogenous in cells; host or cells: RAW 264.7", "T1 sequence (Q9EQU3 26-1032)": "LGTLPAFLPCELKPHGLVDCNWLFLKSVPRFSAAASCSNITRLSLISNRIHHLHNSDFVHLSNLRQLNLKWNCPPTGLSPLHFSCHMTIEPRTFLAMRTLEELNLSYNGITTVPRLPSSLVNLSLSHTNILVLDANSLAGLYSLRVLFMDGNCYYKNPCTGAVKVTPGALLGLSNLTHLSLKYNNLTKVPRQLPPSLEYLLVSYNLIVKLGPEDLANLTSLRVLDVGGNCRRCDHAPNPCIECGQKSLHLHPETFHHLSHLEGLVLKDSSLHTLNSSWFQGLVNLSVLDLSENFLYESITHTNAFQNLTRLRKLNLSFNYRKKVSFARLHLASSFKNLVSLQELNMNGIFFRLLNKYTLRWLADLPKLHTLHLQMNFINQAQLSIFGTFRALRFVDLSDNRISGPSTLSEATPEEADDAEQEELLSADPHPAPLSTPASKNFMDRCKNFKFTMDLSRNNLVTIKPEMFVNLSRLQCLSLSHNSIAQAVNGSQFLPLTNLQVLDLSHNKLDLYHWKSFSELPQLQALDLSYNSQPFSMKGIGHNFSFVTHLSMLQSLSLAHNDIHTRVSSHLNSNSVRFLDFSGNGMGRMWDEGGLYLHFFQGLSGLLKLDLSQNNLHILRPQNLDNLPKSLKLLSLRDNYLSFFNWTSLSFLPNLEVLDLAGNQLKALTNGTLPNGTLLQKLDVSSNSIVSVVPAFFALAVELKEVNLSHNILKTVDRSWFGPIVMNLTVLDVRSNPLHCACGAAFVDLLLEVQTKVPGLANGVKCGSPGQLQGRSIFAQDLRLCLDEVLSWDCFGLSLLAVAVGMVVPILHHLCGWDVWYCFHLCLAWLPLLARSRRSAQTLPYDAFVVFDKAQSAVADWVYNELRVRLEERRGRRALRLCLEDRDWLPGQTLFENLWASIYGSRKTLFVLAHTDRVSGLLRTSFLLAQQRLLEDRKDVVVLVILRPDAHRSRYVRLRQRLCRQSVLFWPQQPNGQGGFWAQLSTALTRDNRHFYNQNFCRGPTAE", "experiment": "TLR9-mediated TNF-α secretion (ODN2395 stimulation), ELISA", "description": "(§1) Agonists specific to TLR1/TLR2 (Pam3CSK4), TLR2/TLR6 (FSL-1), TLR3 (Poly I:C), TLR7 (imiquimod), and TLR8 (TL8-506) were purchased from InvivoGen Ltd. (Hong-Kong, China), and a TLR4-specific agonist (LPS from E. coli O111:B4) was purchased from Sigma-Aldrich, Inc. For TLR9-specific stimulation, class C CpG-ODN (ODN2395, 5′-TCGTCGTTTTCGGCGCGCGCCG-3′) having full phosphorothioate backbone modification was synthesized (Bioneer, Inc., Daejeon, Korea). All TLR agonists were dissolved in deionized water and applied to a culture media for TLR activation. The cells were treated with test compounds or a control medium for 1 hour, and then stimulated with a TLR agonist for 4 hours, or 24 hours in the case of poly(I:C), and the cytokine secretion was monitored.\n(§2) RAW 264.7 or differentiated THP-1 cell lines were seeded onto a 96-well culture plate at a density of 2×10^4 cells/well. The cells were treated with test compounds for 1 hour followed by the stimulation with TLR agonists for 4 hours. The supernatant was transferred to pre-coated assay plates, and the secretion levels of mouse and human TNF-α were measured by respective ELISA kits (Invitrogen, Carlsbad, CA, USA). All experiments were performed according to the manufacturer's instructions. Absorbance was measured by a microplate reader spectrophotometer (Molecular Devices, Inc., San Jose, CA, USA), and data was interpolated from a standard curve using SoftMax Pro 5.3 software (Molecular Devices, Inc.).\nIn order to evaluate the antagonistic effect of each compound on TLR7/TLR9 through ELISA (enzyme-linked immunosorbent assay), RAW 264.7 cells were pretreated with the eight compounds followed by the stimulation with a TLR7-specific agonist (imiquimod, 3.61 μM) or with a TLR9-specific agonist (ODN2395, 0.5 μM). […] Since the two ligands had no agonistic effect per se (FIG. 3B), the increased cytokine production may be due to cell activation (or non-specific cellular stress) by co-treatment. Consequently, TIC10 was selected as the most suitable lead for further optimization to improve the inhibitory potency against both TLR7 and TLR9."}, "TLR1/2": {"biological_target": "T2, TLR1/2 (Mus musculus, UniProt Q9EPQ1+Q9QUN7)", "T2 construct": "endogenous in cells; host or cells: RAW 264.7", "T2 sequence (Q9EPQ1 26-795)": "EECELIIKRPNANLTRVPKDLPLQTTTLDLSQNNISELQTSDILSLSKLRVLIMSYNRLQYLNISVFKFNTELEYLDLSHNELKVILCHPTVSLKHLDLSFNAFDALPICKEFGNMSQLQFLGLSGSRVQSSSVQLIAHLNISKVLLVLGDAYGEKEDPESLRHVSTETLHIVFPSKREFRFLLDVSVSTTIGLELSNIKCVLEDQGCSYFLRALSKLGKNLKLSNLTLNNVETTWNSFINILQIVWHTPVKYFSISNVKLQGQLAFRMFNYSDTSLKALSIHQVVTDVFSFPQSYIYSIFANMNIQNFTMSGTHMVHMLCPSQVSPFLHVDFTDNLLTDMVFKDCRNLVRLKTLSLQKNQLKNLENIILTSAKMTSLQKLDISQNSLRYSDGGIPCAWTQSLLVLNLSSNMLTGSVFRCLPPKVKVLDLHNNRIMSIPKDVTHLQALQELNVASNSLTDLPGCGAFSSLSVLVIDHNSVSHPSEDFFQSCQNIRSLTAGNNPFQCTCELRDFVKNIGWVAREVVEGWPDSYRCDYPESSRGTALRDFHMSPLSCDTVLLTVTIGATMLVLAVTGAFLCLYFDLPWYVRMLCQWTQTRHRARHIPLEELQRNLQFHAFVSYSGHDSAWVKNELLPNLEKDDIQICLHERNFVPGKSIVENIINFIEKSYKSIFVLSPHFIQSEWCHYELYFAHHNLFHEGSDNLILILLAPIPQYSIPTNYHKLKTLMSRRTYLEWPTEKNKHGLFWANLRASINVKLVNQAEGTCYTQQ", "T2 sequence (Q9QUN7 25-784)": "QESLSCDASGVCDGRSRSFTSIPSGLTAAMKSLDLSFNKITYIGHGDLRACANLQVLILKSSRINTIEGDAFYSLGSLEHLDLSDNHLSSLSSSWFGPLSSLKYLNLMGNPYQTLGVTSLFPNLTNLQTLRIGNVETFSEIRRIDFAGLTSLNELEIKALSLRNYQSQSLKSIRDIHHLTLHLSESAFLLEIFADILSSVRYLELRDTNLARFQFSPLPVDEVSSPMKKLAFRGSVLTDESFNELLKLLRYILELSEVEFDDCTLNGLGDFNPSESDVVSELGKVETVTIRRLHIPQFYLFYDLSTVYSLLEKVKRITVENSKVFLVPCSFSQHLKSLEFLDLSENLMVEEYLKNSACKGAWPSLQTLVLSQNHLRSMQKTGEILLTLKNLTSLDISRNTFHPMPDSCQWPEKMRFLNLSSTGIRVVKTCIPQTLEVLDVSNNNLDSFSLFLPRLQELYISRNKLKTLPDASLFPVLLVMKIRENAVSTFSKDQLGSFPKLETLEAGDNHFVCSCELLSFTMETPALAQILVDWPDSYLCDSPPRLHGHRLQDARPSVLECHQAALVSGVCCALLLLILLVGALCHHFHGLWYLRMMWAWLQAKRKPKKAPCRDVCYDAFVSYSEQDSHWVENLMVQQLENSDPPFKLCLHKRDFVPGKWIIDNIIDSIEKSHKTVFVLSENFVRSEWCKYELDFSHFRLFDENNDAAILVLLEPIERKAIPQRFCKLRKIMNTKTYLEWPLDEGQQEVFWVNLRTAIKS", "experiment": "TLR1/2-mediated TNF-α secretion (Pam3CSK4), ELISA", "details": "RAW 264.7, 10 or 20 μM", "description": "as §1\nas §2, with “All experiments were performed according to the manufacturer's instructions.” left out, “Inc.). […]” for “Inc.).”"}, "TLR2/6": {"biological_target": "T3, TLR2/6 (Mus musculus, UniProt Q9EPW9+Q9QUN7)", "T3 construct": "endogenous in cells; host or cells: RAW 264.7", "T3 sequence (Q9QUN7 25-784)": "as above", "T3 sequence (Q9EPW9 28-795)": "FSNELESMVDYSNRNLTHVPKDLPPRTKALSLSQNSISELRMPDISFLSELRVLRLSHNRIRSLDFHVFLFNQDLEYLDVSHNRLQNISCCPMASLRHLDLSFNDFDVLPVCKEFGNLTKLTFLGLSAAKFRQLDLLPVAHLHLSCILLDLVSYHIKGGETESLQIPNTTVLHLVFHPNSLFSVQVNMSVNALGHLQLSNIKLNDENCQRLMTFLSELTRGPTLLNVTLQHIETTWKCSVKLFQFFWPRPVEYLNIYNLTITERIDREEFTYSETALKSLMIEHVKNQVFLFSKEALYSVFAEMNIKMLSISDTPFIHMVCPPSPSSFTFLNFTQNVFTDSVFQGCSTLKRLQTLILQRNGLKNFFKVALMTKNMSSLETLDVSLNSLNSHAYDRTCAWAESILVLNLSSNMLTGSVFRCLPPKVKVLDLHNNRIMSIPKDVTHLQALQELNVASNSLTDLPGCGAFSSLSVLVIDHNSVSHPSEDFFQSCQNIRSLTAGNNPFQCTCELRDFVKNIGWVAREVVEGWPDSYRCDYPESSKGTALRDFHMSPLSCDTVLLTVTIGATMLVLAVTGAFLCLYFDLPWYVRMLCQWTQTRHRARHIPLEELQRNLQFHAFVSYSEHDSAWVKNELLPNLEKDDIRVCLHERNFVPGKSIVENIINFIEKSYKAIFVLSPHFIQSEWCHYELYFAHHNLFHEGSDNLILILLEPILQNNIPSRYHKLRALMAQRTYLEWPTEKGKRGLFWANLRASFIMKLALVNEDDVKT", "experiment": "TLR2/6-mediated TNF-α secretion (FSL-1), ELISA", "details": "RAW 264.7, 10 or 20 μM", "description": "as §1\nas §2, with “All experiments were performed according to the manufacturer's instructions.” left out, “Inc.). […]” for “Inc.).”"}},
  "note": "pIC50: −log10 of the molar value. Entries after “also recorded” stand apart in the source; their conditions may differ.",
  "data": [
    {"smiles": "COc1ccc(CNc2ncc(-c3ccc4c(c3)OCO4)n2C)c(OC)c1", "note": "[TIC10-7, 5-(2H-1,3-benzodioxol-5-yl)-N-[(2,4-dimethoxyphenyl)methyl]-1-methyl-1H-imidazol-2-amine]", "values": [
      {"measurement": "TLR9-mediated TNF-α secretion", "setting": "TLR9; RAW 264.7, 10 or 20 μM, ODN2395 (receptor specificity, FIG. 6)", "result": "moderately reduced"},
      {"measurement": "inhibitory efficacy on TLR9-mediated TNF-α secretion", "setting": "TLR9; RAW 264.7, 10 or 50 μM, ODN2395 (FIG. 4A)", "result": "improved inhibitory efficacy compared to TIC10; also recorded: significant reduction"},
      {"measurement": "pIC50", "setting": "TLR9; RAW 264.7, ODN2395 (FIG. 4C)", "result": 5.17},
      {"measurement": "effect on TLR1/2-mediated cytokine (TNF-α) production", "setting": "TLR1/2", "result": "no effect"},
      {"measurement": "effect on TLR2/6-mediated cytokine (TNF-α) production", "setting": "TLR2/6", "result": "no effect"}
    ]}
  ]
}
